Data reported in PubChem BioAssay AID328 (DTP/NCI, 2004).
Several values for one entry are separate records, joined by “and”; a condition that tells them apart may be missing. Equal entries are not always repeated. Inconclusive results and toxic doses are left out.

Test system: BDF1 mice, P388 leukemia ip, median survival T/C
Assay: NCI In Vivo Anticancer Drug Screen. Data for tumor model P388 Leukemia (intraperitoneal) in B6D2F1 (BDF1) mice
Conditions: endpoint: median survival time, higher = longer survival
Summary of the method: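 Each value expresses how treatment altered survival: treated-mouse outcome over vehicle-mouse outcome, both groups bearing the transplanted tumour.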

[1] = dose: 50.0 mg/kg/injection, schedule: Q01DX009 (ip), vehicle: saline with Tween-80
[2] = dose: 100.0 mg/kg/injection, schedule: Q01DX009 (ip), vehicle: saline with Tween-80
[3] = dose: 200.0 mg/kg/injection, schedule: Q01DX009 (ip), vehicle: saline with Tween-80
[4] = dose: 100.0 mg/kg/injection, schedule: Q04DX003 (ip), vehicle: saline with Tween-80
[5] = dose: 100.0 mg/kg/injection, schedule: Q04DX003 (ip), vehicle: Klucel (hydroxypropylcellulose) (HPC)
[6] = dose: 50.0 mg/kg/injection, schedule: Q01DX009 (ip), vehicle: Klucel (hydroxypropylcellulose) (HPC)
[7] = dose: 100.0 mg/kg/injection, schedule: Q01DX009 (ip), vehicle: Klucel (hydroxypropylcellulose) (HPC)

`Cc1cccn2c(CCc3nnc4c(C)cccn34)nnc12` was tested, and the T/C [1] was 97 % of control, the T/C [2] was 93 % of control and the T/C [3] was 89 % of control.

In the case of `Cc1c(-c2ccc(C(=N)N)cc2)oc(-c2ccc(C(=N)N)cc2)c1C`, the T/C (dose: 3.13 mg/kg/injection, schedule: Q01DX009 (ip), vehicle: saline with Tween-80) was 109 % of control.

`Cc1ccc(NC(=O)Nc2ccccc2C(F)(F)F)cc1NC(=O)Nc1ccccc1C(F)(F)F` was tested, and the T/C [4] was 100 % of control, the T/C (dose: 200.0 mg/kg/injection, schedule: Q04DX003 (ip), vehicle: saline with Tween-80) was 100 % of control and the T/C (dose: 400.0 mg/kg/injection, schedule: Q04DX003 (ip), vehicle: saline with Tween-80) was 104 % of control.

In the case of `CCCCCC(O)CCCCC`, the T/C [2] was 104 % of control and the T/C [3] was 95 % of control.

In the case of `c1cnc2[nH]cnc2n1`, the T/C (dose: 100.0 mg/kg/injection, schedule: Q01DX009 (ip), vehicle: saline) was 95 % of control, the T/C (dose: 100.0 mg/kg/injection, schedule: Q04DX003 (ip), vehicle: saline) was 100 % of control and the T/C (dose: 200.0 mg/kg/injection, schedule: Q01DX009 (ip), vehicle: saline) was 95 % of control. The T/C (dose: 200.0 mg/kg/injection, schedule: Q04DX003 (ip), vehicle: saline) was 100 % of control and the T/C (dose: 400.0 mg/kg/injection, schedule: Q04DX003 (ip), vehicle: saline) was 90 % of control.

`S=P(NCCS)(N1CC1)N1CC1` was tested, and the T/C (dose: 25.0 mg/kg/injection, schedule: Q01DX009 (ip), vehicle: saline with Tween-80) was 95 % of control, the T/C [1] was 122 % of control and the T/C [2] was 109 % of control.

In the case of `O=C(c1ccc(Cl)cc1)c1cccc[n+]1Cc1ccccc1`, the T/C (dose: 0.37 mg/kg/injection, schedule: Q01DX009 (ip), vehicle: Klucel (hydroxypropylcellulose) (HPC)) was 100 % of control, the T/C (dose: 18.75 mg/kg/injection, schedule: Q01DX009 (ip), vehicle: Klucel (hydroxypropylcellulose) (HPC)) was 104 % of control and the T/C (dose: 28.12 mg/kg/injection, schedule: Q04DX003 (ip), vehicle: Klucel (hydroxypropylcellulose) (HPC)) was 100 % of control. The T/C (dose: 37.5 mg/kg/injection, schedule: Q01DX009 (ip), vehicle: Klucel (hydroxypropylcellulose) (HPC)) was 109 % of control, the T/C (dose: 56.25 mg/kg/injection, schedule: Q04DX003 (ip), vehicle: Klucel (hydroxypropylcellulose) (HPC)) was 95 % of control and the T/C (dose: 112.5 mg/kg/injection, schedule: Q04DX003 (ip), vehicle: Klucel (hydroxypropylcellulose) (HPC)) was 100 % of control.

In the case of `N#CCCCCCl`, the T/C (dose: 25.0 mg/kg/injection, schedule: Q01DX001 (ip), vehicle: saline) was 90 % of control, the T/C (dose: 50.0 mg/kg/injection, schedule: Q01DX001 (ip), vehicle: saline) was 100 % of control and the T/C (dose: 100.0 mg/kg/injection, schedule: Q01DX001 (ip), vehicle: saline) was 95 % of control and 100 % of control.

For `O=c1ccc2nccc3c4ccccc4n1c23`, the T/C (dose: 100.0 mg/kg/injection, schedule: Q01DX001 (ip), vehicle: saline sonified) was 100 % of control, the T/C (dose: 200.0 mg/kg/injection, schedule: Q01DX001 (ip), vehicle: saline sonified) was 100 % of control and the T/C (dose: 400.0 mg/kg/injection, schedule: Q01DX001 (ip), vehicle: saline sonified) was 100 % of control.

For `Cc1ncc(/C=C/C(=O)O)c(C=O)c1O`, the T/C (dose: 6.25 mg/kg/injection, schedule: Q04DX003 (ip), vehicle: saline) was 103 % of control, the T/C (dose: 12.5 mg/kg/injection, schedule: Q04DX003 (ip), vehicle: saline) was 101 % of control and the T/C (dose: 25.0 mg/kg/injection, schedule: Q04DX003 (ip), vehicle: saline) was 100 % of control.

`c1ccc2c3nc(nc2c1)CCCCCCCN3` was tested, and the T/C [5] was 109 % of control and the T/C (dose: 200.0 mg/kg/injection, schedule: Q04DX003 (ip), vehicle: Klucel (hydroxypropylcellulose) (HPC)) was 94 % of control.

`O=[N+]([O-])/C=C/c1cccc(F)c1` was tested, and the T/C (dose: 12.5 mg/kg/injection, schedule: Q04DX003 (ip), vehicle: saline with Tween-80) was 107 % of control, the T/C (dose: 25.0 mg/kg/injection, schedule: Q04DX003 (ip), vehicle: saline with Tween-80) was 98 % of control and the T/C (dose: 50.0 mg/kg/injection, schedule: Q04DX003 (ip), vehicle: saline with Tween-80) was 93 % of control. For the same molecule, the T/C [4] was 87 % of control.

In the case of `CC(C)c1ccc(N2C(N)=NC(N)=NC2(C)C)cc1`, the T/C (dose: 12.5 mg/kg/injection, schedule: Q01DX005 (ip), vehicle: Klucel (hydroxypropylcellulose) (HPC)) was 110 % of control, the T/C (dose: 25.0 mg/kg/injection, schedule: Q01DX005 (ip), vehicle: Klucel (hydroxypropylcellulose) (HPC)) was 108 % of control and the T/C (dose: 50.0 mg/kg/injection, schedule: Q01DX005 (ip), vehicle: Klucel (hydroxypropylcellulose) (HPC)) was 105 % of control.

In the case of `O=C1c2cccnc2C(=O)N1Cc1ccccc1`, the T/C (dose: 9.38 mg/kg/injection, schedule: Q01DX009 (ip), vehicle: saline with Tween-80) was 109 % of control, the T/C (dose: 18.7 mg/kg/injection, schedule: Q01DX009 (ip), vehicle: saline with Tween-80) was 95 % of control and the T/C (dose: 37.5 mg/kg/injection, schedule: Q01DX009 (ip), vehicle: saline with Tween-80) was 100 % of control.

With `O=C(N/N=C/c1ccc(Cl)cc1Cl)c1ccccc1` the T/C [6] was 110 % of control, the T/C [7] was 110 % of control and the T/C (dose: 200.0 mg/kg/injection, schedule: Q01DX009 (ip), vehicle: Klucel (hydroxypropylcellulose) (HPC)) was 95 % of control.

In the case of `Nc1ncccc1C1CCCS1` (configuration not stated), the T/C (dose: 50.0 mg/kg/injection, schedule: Q04DX002 (ip), vehicle: saline with Tween-80) was 104 % of control, the T/C (dose: 100.0 mg/kg/injection, schedule: Q04DX002 (ip), vehicle: saline with Tween-80) was 98 % of control and the T/C (dose: 200.0 mg/kg/injection, schedule: Q04DX002 (ip), vehicle: saline with Tween-80) was 91 % of control.

In the case of `COc1cc2cc(c1Cl)N(C)C(=O)CC(OC(C)=O)C1(C)OC1C(C)C1CC(O)(NC(=O)O1)C(OC)C=C/C=C(\C)C2` (configuration not stated), the T/C (dose: 0.2 micrograms/kg/injection, schedule: Q01DX009 (ip), vehicle: saline + alcohol) was 90 % of control, the T/C (dose: 0.4 micrograms/kg/injection, schedule: Q01DX009 (ip), vehicle: saline + alcohol) was 95 % of control and the T/C (dose: 0.8 micrograms/kg/injection, schedule: Q01DX009 (ip), vehicle: saline + alcohol) was 95 % of control and 110 % of control. The T/C (dose: 1.5 micrograms/kg/injection, schedule: Q01DX009 (ip), vehicle: saline + alcohol) was 150 % of control, the T/C (dose: 1.6 micrograms/kg/injection, schedule: Q01DX009 (ip), vehicle: saline + alcohol) was 100 % of control and the T/C (dose: 3.1 micrograms/kg/injection, schedule: Q01DX009 (ip), vehicle: saline + alcohol) was 110 % of control. The T/C (dose: 6.2 micrograms/kg/injection, schedule: Q01DX009 (ip), vehicle: saline + alcohol) was 150 % of control, the T/C (dose: 12.5 micrograms/kg/injection, schedule: Q01DX009 (ip), vehicle: saline + alcohol) was 158 % of control and the T/C (dose: 25.0 micrograms/kg/injection, schedule: Q01DX009 (ip), vehicle: saline + alcohol) was 170 % of control and 173 % of control. The T/C (dose: 50.0 micrograms/kg/injection, schedule: Q01DX009 (ip), vehicle: saline + alcohol) was 183 % of control (2×) and 190 % of control, the T/C (dose: 100.0 micrograms/kg/injection, schedule: Q01DX009 (ip), vehicle: saline + alcohol) was 230 % of control and 204 % of control and the T/C (dose: 200.0 micrograms/kg/injection, schedule: Q01DX009 (ip), vehicle: saline + alcohol) was 100 % of control.

With `O=C(NN=C1CCCCC1)c1ccccc1` the T/C (dose: 25.0 mg/kg/injection, schedule: Q04DX003 (ip), vehicle: Klucel (hydroxypropylcellulose) (HPC)) was 100 % of control, the T/C [6] was 100 % of control and the T/C (dose: 50.0 mg/kg/injection, schedule: Q04DX003 (ip), vehicle: Klucel (hydroxypropylcellulose) (HPC)) was 100 % of control. The T/C (dose: 56.25 mg/kg/injection, schedule: Q01DX001 (ip), vehicle: Klucel (hydroxypropylcellulose) (HPC)) was 100 % of control, the T/C [7] was 110 % of control and the T/C [5] was 86 % of control. For the same molecule, the T/C (dose: 112.5 mg/kg/injection, schedule: Q01DX001 (ip), vehicle: Klucel (hydroxypropylcellulose) (HPC)) was 104 % of control, the T/C (dose: 150.0 mg/kg/injection, schedule: Q04DX003 (ip), vehicle: Klucel (hydroxypropylcellulose) (HPC)) was 104 % of control and the T/C (dose: 225.0 mg/kg/injection, schedule: Q01DX001 (ip), vehicle: Klucel (hydroxypropylcellulose) (HPC)) was 109 % of control. For the same molecule, the T/C (dose: 225.0 mg/kg/injection, schedule: Q04DX003 (ip), vehicle: Klucel (hydroxypropylcellulose) (HPC)) was 95 % of control.
